{"source": "patent US20140295417A1", "about": "“IDENTIFICATION OF ANTIBIOTIC RESISTANCE” (priority 2011, published 2014)", "key": {"[1]": {"system": "HLAR, High level Aminoglycoside Resistance in Enterococci", "assay": "Binding of fluorescently labelled antibiotic, resistant vs non-resistant form (Table 3)", "type": "cell-based", "conditions": "resistant relative to non-resistant form", "method": "(§1) Table 3: Antibiotic resistance mechanism in clinically relevant micro-organisms and alteration in the amount of antibiotics in resistant micro-organisms. The alteration of the amount of detectable labelled antibiotics in micro-organisms in its resistant form is determined relative to its non-resistant form. The amount is expressed in % change of fluorescence (decrease and increase, respectively) of an antibiotic which carries a fluorescent label."}, "23S rRNA": {"system": "23S rRNA", "conditions": "cited from earlier work"}, "[2]": {"system": "VISA, Vancomycin intermediary SA", "assay": "Binding of fluorescently labelled antibiotic, resistant vs non-resistant form (Table 3)", "type": "cell-based, Staphylococcus aureus", "conditions": "increased binding; fluorescent-labelled antibiotic, resistant relative to non-resistant form", "method": "as §1"}, "[3]": {"system": "VRS, Vancomycin resistant Staph", "assay": "Binding of fluorescently labelled antibiotic, resistant vs non-resistant form (Table 3)", "type": "cell-based, Staphylococci (CNS)", "conditions": "increased binding; fluorescent-labelled antibiotic, resistant relative to non-resistant form", "method": "as §1"}, "[4]": {"system": "VRE, Vancomycin resistant Enterococci", "assay": "Binding of fluorescently labelled antibiotic, resistant vs non-resistant form (Table 3)", "type": "cell-based", "conditions": "resistant relative to non-resistant form", "method": "as §1"}, "[5]": {"system": "VRE, Vancomycin resistant Enterococci", "conditions": "mechanism column; reduction of affinity in resistant form; cited from earlier work"}, "[6]": {"system": "ESBL, Extended Spectrum β-Lactamase Acinetobacter", "assay": "Binding of fluorescently labelled antibiotic, resistant vs non-resistant form (Table 3)", "type": "cell-based", "conditions": "increase of binding; fluorescent-labelled antibiotic, resistant relative to non-resistant form", "method": "as §1"}, "[7]": {"system": "ESBL, Extended Spectrum β-Lactamase BCC", "assay": "Binding of fluorescently labelled antibiotic, resistant vs non-resistant form (Table 3)", "type": "cell-based", "conditions": "increase of binding; fluorescent-labelled antibiotic, resistant relative to non-resistant form", "method": "as §1"}, "[8]": {"system": "ESBL, Extended Spectrum β-Lactamase Enterobacteriaceae", "assay": "Binding of fluorescently labelled antibiotic, resistant vs non-resistant form (Table 3)", "type": "cell-based", "conditions": "increase of binding; fluorescent-labelled antibiotic, resistant relative to non-resistant form", "method": "as §1"}, "[9]": {"system": "ESBL, Extended Spectrum β-Lactamase Pseudomonas spp.", "assay": "Binding of fluorescently labelled antibiotic, resistant vs non-resistant form (Table 3)", "type": "cell-based", "conditions": "increase of binding; fluorescent-labelled antibiotic, resistant relative to non-resistant form", "method": "as §1"}, "[10]": {"system": "ESBL, Extended Spectrum β-Lactamase Stenotrophomonas maltophilla", "assay": "Binding of fluorescently labelled antibiotic, resistant vs non-resistant form (Table 3)", "type": "cell-based", "conditions": "increase of binding; fluorescent-labelled antibiotic, resistant relative to non-resistant form", "method": "as §1"}, "[11]": {"system": "CA-MRSA, Community acquired MRSA", "type": "cell-based, Staphylococcus aureus", "conditions": "resistant relative to non-resistant form", "method": "as §1"}, "[12]": {"system": "BORSA, Border line oxacillin resistant SA", "assay": "Binding of fluorescently labelled antibiotic, resistant vs non-resistant form (Table 3)", "type": "cell-based, Staphylococcus aureus", "conditions": "resistant relative to non-resistant form", "method": "as §1"}, "[13]": {"system": "MRSA, Methicillin Resistant SA", "assay": "Binding of fluorescently labelled antibiotic, resistant vs non-resistant form (Table 3)", "type": "cell-based, Staphylococcus aureus", "conditions": "resistant relative to non-resistant form", "method": "as §1"}, "[14]": {"system": "ORSA, Oxacillin resistant SA", "assay": "Binding of fluorescently labelled antibiotic, resistant vs non-resistant form (Table 3)", "type": "cell-based, Staphylococcus aureus", "conditions": "resistant relative to non-resistant form", "method": "as §1"}, "[15]": {"conditions": "reduction of binding, fluorescent-labelled antibiotic"}}, "note": "Where two headings read alike, the source gives them in different places. Where a SMILES comes first, the peptide text is derived from it. Bridges are numbered along the chain shown (N, C = ends). [ ]: non-standard residue; d: D form. The star is where a group is joined. NMePhe(4-NMe2) = CN[C@@H](Cc1ccc(N(C)C)cc1)C(=O)O; Pip(4-oxo) = O=C1CCN[C@H](C(=O)O)C1; Picolinoyl(3-OH) = O=C(c1ncccc1O)*; Phg = N[C@H](C(=O)O)c1ccccc1; dAbu = CC[C@@H](N)C(=O)O", "data": [{"compound": "[H]/N=C(/N)N[C@H]1[C@H](O)[C@@H](O)[C@H](O[C@@H]2O[C@@H](C)[C@](O)(C=O)[C@H]2O[C@@H]2O[C@@H](CO)[C@H](O)[C@@H](O)[C@@H]2NC)[C@@H](N/C(N)=N\\[H])[C@@H]1O", "note": "[Streptomycin]", "values": [{"measurement": "% Change in Fluorescenc", "setting": "[1]; [15]", "result": ">80", "unit": "% reduction"}, {"measurement": "Effect of resistance on fluorescence", "setting": "[1]", "result": "Reduction in Streptomycin binding"}, {"measurement": "Phenotype", "setting": "23S rRNA; 23S rRNA position 2661, \"G to C\", E. coli, when expressed with Smr, hyperaccurate S12 mutation", "result": "streptomycin dependent"}]}, {"compound": "CN[C@H](CC(C)C)C(=O)N[C@H]1C(=O)N[C@@H](CC(N)=O)C(=O)N[C@H]2C(=O)N[C@H]3C(=O)N[C@H](C(=O)N[C@H](C(=O)O)c4cc(O)cc(O)c4-c4cc3ccc4O)[C@H](O)c3ccc(c(Cl)c3)Oc3cc2cc(c3O[C@@H]2O[C@H](CO)[C@@H](O)[C@H](O)[C@H]2O[C@H]2C[C@](C)(N)[C@H](O)[C@H](C)O2)Oc2ccc(cc2Cl)[C@H]1O", "note": "[Vancomycin]", "values": [{"measurement": "% Change in Fluorescenc", "setting": "[2]", "result": "20-50%"}, {"measurement": "% Change in Fluorescenc", "setting": "[3]", "result": ">50", "unit": "%"}, {"measurement": "% Change in Fluorescenc", "setting": "[4]; [15]", "result": ">80", "unit": "%"}, {"measurement": "Effect of resistance on fluorescence", "setting": "[4]", "result": "Reduction of vancomycin"}, {"measurement": "Reduced affinity to Van", "setting": "[5]", "result": "Reduced affinity to Van by 3 orders of magnitude"}]}, {"compound": "O=C(O)[C@H]1/C(=C/CO)O[C@@H]2CC(=O)N21", "note": "[clavulanic acid]", "values": [{"measurement": "% Change in Fluorescenc", "setting": "[6]", "result": ">80", "unit": "%"}, {"measurement": "% Change in Fluorescenc", "setting": "[7]", "result": ">80", "unit": "%"}, {"measurement": "% Change in Fluorescenc", "setting": "[8]", "result": ">80", "unit": "%"}, {"measurement": "% Change in Fluorescenc", "setting": "[9]", "result": ">80", "unit": "%"}, {"measurement": "% Change in Fluorescenc", "setting": "[10]", "result": ">80", "unit": "%"}]}, {"compound": "CC[C@H]1NC(=O)[C@@H](NC(=O)c2ncccc2O)[C@@H](C)OC(=O)[C@H](c2ccccc2)NC(=O)[C@@H]2CC(=O)CCN2C(=O)[C@H](Cc2ccc(N(C)C)cc2)N(C)C(=O)[C@@H]2CCCN2C1=O", "note": "[pristinamycin 1A] ({Picolinoyl(3-OH)}-T[dAbu]P[NMePhe(4-NMe2)][Pip(4-oxo)][Phg]; ester 1-C)", "values": [{"measurement": "Phenotype (binding on peptidyl transferase loop)", "setting": "23S rRNA; 23S rRNA position 2500, U2500A/C2501A, E. coli", "result": "Inhibits binding of 1A"}, {"measurement": "Phenotype (binding on peptidyl transferase loop)", "setting": "23S rRNA; 23S rRNA position 2602, A2602C/C2501A, E. coli", "result": "Inhibits binding of 1A"}]}, {"compound": "CSC[S@+]([O-])C[C@H](CO)NC(=O)/C=C/c1c(C)[nH]c(=O)[nH]c1=O", "note": "[sparsomycin]", "values": [{"measurement": "Phenotype (resistance)", "setting": "23S rRNA; 23S rRNA position 2452 \"C to U\", Halobacterium halobium (Tan et al. 1996)", "result": "Low level sparsomycin"}]}, {"compound": "C=C(NC(=O)C(=C)NC(=O)c1csc(C2=N[C@@H]3c4csc(n4)[C@H]4NC(=O)c5csc(n5)[C@H]([C@](C)(O)[C@@H](C)O)NC(=O)[C@H]5CSC(=N5)/C(=C/C)NC(=O)[C@H]([C@@H](C)O)NC(=O)c5csc(n5)[C@]3(CC2)NC(=O)[C@H](C)NC(=O)C(=C)NC(=O)[C@H](C)NC(=O)[C@H]([C@@H](C)CC)N[C@@H]2C=Cc3c([C@H](C)O)cc(nc3[C@H]2O)C(=O)O[C@@H]4C)n1)C(N)=O", "note": "[thiostrepton]", "values": [{"measurement": "Phenotype: binding of thiostrepton", "setting": "23S rRNA; 23S rRNA 1056 G to C, E. coli, RNA fragments", "result": "weakened in RNA"}, {"measurement": "Phenotype: drug binding affinity", "setting": "23S rRNA; 23S rRNA 1067 A to C, E. coli", "result": "affinity is reduced similarly."}, {"measurement": "Phenotype: level of resistance", "setting": "23S rRNA; 23S rRNA 1067 A to C, E. coli", "result": "A to C or U confers high"}, {"measurement": "Phenotype: drug binding affinity", "setting": "23S rRNA; 23S rRNA 1067 A to G, E. coli", "result": "affinity is reduced similarly."}, {"measurement": "Phenotype: level of resistance", "setting": "23S rRNA; 23S rRNA 1067 A to G, E. coli", "result": "confers intermediate level"}, {"measurement": "Phenotype: drug binding affinity", "setting": "23S rRNA; 23S rRNA 1067 A to U, E. coli", "result": "affinity is reduced similarly."}, {"measurement": "Phenotype: level of resistance", "setting": "23S rRNA; 23S rRNA 1067 A to U, E. coli", "result": "A to C or U confers high"}, {"measurement": "Phenotype: thiostrepton resistance in poly (U) translation", "setting": "23S rRNA; 23S rRNA 1067 A to U, E. coli, mutant constituted 30% of the total 23S rRNA pool in the ribosomes", "result": "ribosomes; exhibited 30%"}]}, {"compound": "COc1cc(Cc2cnc(N)nc2N)cc(OC)c1OC", "note": "[trimethoprim]", "values": [{"measurement": "Effect of resistance on fluorescence", "setting": "[11]", "result": "binding. Maintaims binding"}]}, {"compound": "Penicillin [listing 1 of 2 here]", "values": [{"measurement": "% Change in Fluorescenc", "setting": "[11]; [15]", "result": "> to ≈80%"}, {"measurement": "% Change in Fluorescenc", "setting": "[12]; [15]", "result": "> to ≈80%"}, {"measurement": "% Change in Fluorescenc", "setting": "[13]; [15]", "result": "> to ≈80%"}, {"measurement": "Effect of resistance on fluorescence", "setting": "[13]", "result": "Reduction of Penicillin binding"}, {"measurement": "% Change in Fluorescenc", "setting": "[14]; [15]", "result": "> to ≈80%"}]}, {"compound": "Penicillin [listing 2 of 2 here]", "values": [{"measurement": "Effect of resistance on fluorescence", "setting": "[11]", "result": "Reduction of Penecillin"}, {"measurement": "Effect of resistance on fluorescence", "setting": "[12]", "result": "Reduction of Penecillin"}, {"measurement": "Effect of resistance on fluorescence", "setting": "[14]", "result": "Reduction of Penecillin"}]}, {"compound": "spiramycin", "values": [{"measurement": "Phenotype", "setting": "23S rRNA; 23S rRNA position 2611, \"C to G\", Chlamydomonas reinhardtii (Gauthier et al. 1988)", "result": "spiramycin resistance"}, {"measurement": "Phenotype", "setting": "23S rRNA; 23S rRNA position 2611, \"C to G\", Yeast mitochondria (Sor and Fukahara 1984)", "result": "spiramycin resistance"}]}]}
